How the values were obtained:
[1] = test system: endothelin (ET-1); experiment: Expression of endothelin (ET-1) in EA.Hy926 endothelial cells, detection kit; assay type: cell-based, human; conditions: EA.Hy926 cell supernatant, 48 h
Experimental: (§1) Commercially available cytokine kits were used to detect the effects of the compounds of the present application on vascular endothelium-derived contracting factor endothelin, vascular endothelium-derived relaxing factor endothelial nitric oxide synthase, nitric oxide, and prostacyclin factor. The detection was performed according to the kit instructions. When testing the effect of the compound of the present application on cytokines, a normal control group, a fasudil hydrochloride group, and high-, medium- and low-dose groups of the compounds of the present application were set up for testing. The fasudil hydrochloride used in this test example was purchased from Beijing Sihuan Pharmaceutical Co., Ltd., with the SFDA approval number of H20173349. The EA.Hy926 cells used in this test example were purchased from Suzhou Beina Chuanglian Biotechnology Co., Ltd.
EA.Hy926 cells were taken and inoculated in a 96-well plate at 5×10^4 cells/mL, 100 μL per well, and cultured adherently for 24 hours, then the test compound prepared in DMEM medium was added, and an equal volume of DMEM medium was added in the normal control group, then the cells were cultured at 37° C. for 48 hours, and then the cell supernatant was taken and placed in an EP tube, and centrifuged at 3000 r/min, 4° C. for 15 min. The resulting cell supernatant was transferred to a new EP tube, diluted twice with culture medium, and detected according to the instruction of the human endothelin detection kit (purchased from Wuhan Boster Biological Engineering Co., Ltd., batch number 59113731009), and the detection results were shown in Table 2.

[2] = test system: prostacyclin (PGI2); experiment: Expression of prostacyclin (PGI2) in EA.Hy926 endothelial cells, ELISA kit; assay type: cell-based; conditions: EA.Hy926 cell supernatant, 24 h
Experimental: as §1
EA.Hy926 cells were taken and inoculated in a 96-well plate at 5×10^4 cells/mL, 100 μL per well, and cultured adherently for 24 hours, then the test compound prepared in DMEM medium was added, and an equal volume of DMEM medium was added in the normal control group, then the cells were cultured at 37° C. for 24 hours, and then the cell supernatant was taken and placed in an EP tube, and centrifuged for 15 min at 3000 r/min and 15° C. The resulting supernatant was transferred to a new EP tube, and then the detection was performed according to the instruction of ELISA kit (purchased from Wuhan Elabscience Biotechnology Co., Ltd., Cat. No. E-EL-0022c), and the detection results were shown in Table 3.

[3] = test system: subarachnoid hemorrhage in rats; experiment: Rat subarachnoid hemorrhage (SAH) model by intravascular puncture, Sugawara bleeding score; assay type: in vivo; design: dose or concentration left out as unconfirmed; conditions: tail vein injection, 2 administrations 4 h apart, scored 24 h after first administration (Sugawara)
Experimental: Rat subarachnoid hemorrhage (SAH) model was built by intravascular puncture. After being weighed, the rats were anesthetized with sodium pentobarbital (50 mg/kg) or chloral hydrate (300 mg/kg) by intraperitoneal injection, then fixed on their back and maintained the animal's body temperature at about 37° C. The rats' neck skin was shaved for surgery, a median incision was made on the neck, and muscle and fascia were separated along the inner edge of stemocleidomastoid muscle to expose the main and bifurcation of right common carotid artery, and expose the external and internal carotid arteries.
The bifurcation of internal carotid artery was gently clamped with ophthalmic forceps, the bifurcation of the internal carotid artery and the external carotid artery was pierced with a 6-gauge syringe needle, the ophthalmic forceps holding the bifurcation of internal carotid artery was slightly loosen, and No. 3 fishing thread was used to perform a puncture at the bleeding point, the ophthalmic forceps on the internal carotid artery was loosen, and the fishing thread was inserted into skull. […] After staying for 15 seconds, the thread for puncture was completely removed, and the skin was sutured after compression to stop the bleeding. 1.6 million units of penicillin potassium (400,000 units/ml, 0.2 ml/rat) was intramuscularly injected to avoid wound infection. For the sham operation group, the thread for puncture was removed when resistance was felt without piercing the bifurcation of the anterior cerebral artery and the middle cerebral artery, while the remaining operation steps were the same as the model group. After the operation, the rats were transferred to a thermal insulation blanket, then transferred to a squirrel cage when they were basically awake, and kept normally.
In this test experimental, 32 groups were set, i.e., Groups 1 to 32, in which Group 1 was a normal control group (healthy rats), Group 2 was a sham operation control group (not modeling by puncture), Group 3 was a model control group (modeling by puncture, administrated with normal saline), Group 4 was a positive control group (modeling by puncture, administrated with fasudil hydrochloride injection), and Groups 5 to 32 were test groups of the compounds of the present application (modeling by puncture, respectively administrated with the compounds of the present application); and there were 8 animals (purchased from SPF (Beijing) Biotechnology Co., Ltd., the certificate number was SYXK (Beijing) 2016-0002) in each group, half of them were female and half of them were male. The animals were subjected to fasting for 12 to 18 hours without prohibition of drinking water before modeling. […] The rats were euthanized 24 h after the first administration, and the brains were taken. According to Sugawara's method (Reference: Sugawara T, Ayer R, Jadhav V, et al. A new grading system evaluating bleeding scale in filament perforation subarachnoid hemorrhage rat model. J Neurosci Methods. 2008, 167(2):327-34), the subarachnoid hemorrhage amounts were scored, and the scoring results were as follows: […]

SMILES	expression of endothelin in endothelial cells: Detection result of test compound at low dose (0.4 μM) [1] [pg/mL]	expression of endothelin in endothelial cells: Detection result of test compound at medium dose (2 μM) [1] [pg/mL]	expression of endothelin in endothelial cells: Detection result of test compound at high dose (10 μM) [1] [pg/mL]	expression of prostacyclin in endothelial cells: Detection result of test compound at low dose (0.4 μM) [2] [pg/mL]	expression of prostacyclin in endothelial cells: Detection result of test compound at medium dose (2 μM) [2] [pg/mL]	expression of prostacyclin in endothelial cells: Detection result of test compound at high dose (10 μM) [2] [pg/mL]	Cerebral hemorrhage volume score (x ± s) [3]
C[C@@H]1CNCCCN1S(=O)(=O)c1cccc2c(O)ncc(F)c12 [Compound R-YK1604, (R)-4-fluoro-5-((2-methyl-1,4-diazacycloheptan-1-yl)sulfonyl)isoquinolin-1-ol]	232.75 ± 42.51	242.72 ± 20.81	230.03 ± 1.24	280.40 ± 9.89	279.35 ± 28.69	251.44 ± 42.48	12.58 ± 1.96
CC(C)[C@@H]1CNCCCN1S(=O)(=O)c1cccc2c(O)nccc12 [Compound R-YK1609, (R)-5-((2-isopropyl-1,4-diazacycloheptan-1-yl)sulfonyl)isoquinolin-1-ol]	222.75 ± 52.53	232.72 ± 22.83	242.03 ± 1.24	259.20 ± 2.21	260.34 ± 7.94	238.68 ± 3.34	12.27 ± 2.02
C[C@@H]1CNCCCN1S(=O)(=O)c1cccc2cnccc12 [Compound R-YK1603, (R)-5-((2-methyl-1,4-diazacycloheptan-1-yl)sulfonyl)isoquinoline]	242.75 ± 52.53	252.72 ± 22.83	242.03 ± 1.24	262.30 ± 0.77	272.58 ± 4.40	243.73 ± 15.66	12.06 ± 1.98
COc1nccc2c(S(=O)(=O)N3CCCNC[C@H]3CCC(C)C)cccc12 [Compound R-YK1612, (R)-5-((2-isopentyl-1,4-diazacycloheptan-1-yl)sulfonyl)-1-methoxyisoquinoline]	232.61 ± 9.70	229.98 ± 11.41	249.23 ± 0.75	269.40 ± 8.89	269.35 ± 8.69	257.44 ± 4.48	13.05 ± 1.96
O=S(=O)(c1cccc2cnccc12)N1CCCNC[C@H]1C1CC1 [Compound R-YK1608, (R)-5-((2-cyclopropyl-1,4-diazacycloheptan-1-yl)sulfonyl)isoquinoline]	233.55 ± 0.12	229.98 ± 11.41	239.23 ± 0.75	257.55 ± 4.12	251.98 ± 10.41	242.23 ± 1.75	13.18 ± 1.97
